Where two headings read alike, the source gives them in different places. No end group written: not given here.
Experiments:
animal pain models = conditions: cited from earlier work
Source text: […]. Nav channels are structurally related to voltage-gated calcium (Cav) channels, Cav1 and Cav2. […] […].

[1] = test system: voltage-gated ion channels (VGICs); conditions: cited from earlier work; for inhibition of Nav and Cav channels (in words): Chuang et al., Yamamoto and Sakashita, Middleton et al., Sidach and Mintz, Xiao et al., 2005
[2] = test system: HVA I Ca in small-diameter IB4 ^− DRG neurons; assay: cells
Experimental: Spinal level L3–L5 DRG were removed and placed in ice-cold HEPES-buffered saline (HBS) composed of (in mM): 154 NaCl, 2.5 KCl, 1.8 CaCl2, 1.5 MgCl2, 10 HEPES, and 10 glucose (pH 7.4, 330 ± 5 mOsm). Iridectomy scissors were utilized to cut up ganglia before incubation at 37°C for 15 min in oxygenated HBS containing 5 mg ml^−1 collagenase type 2 (Worthington Biochemical Corp, Lakewood, NJ, United States) followed by 25 min in oxygenated HBS containing 1 mg ml^−1 papain (Worthington Biochemical Corp). […] After enzyme treatment, ganglia were placed in 3 ml of HBS following two room temperature HBS washes. Ganglia were then triturated through fire-polished Pasteur pipettes with decreasing bores to extract cells. Finally, the cells mixed in HBS were plated onto surface modified culture dishes (Corning Primaria™ easy grip). […] DRG cells were pre-treated with 1 μg ml^−1 Alexa Fluor 488-conjugated Bandeiraea simplicifolia IB4 (Invitrogen) for 5 min at room temperature and washed with HBS for 5 min before fluorescence was examined on the inverted microscope (Olympus, IX50) used for patch clamp recordings.
Cell size was determined from an eyepiece graticule. Whole-cell electrophysiology was conducted at room temperature (22–24°C) in culture dishes perfused with room temperature HBS. The intracellular pipette solution contained (mM): 120 CsCl, 10 HEPES, 10 EGTA, 2 CaCl2, 5 MgATP, 5 Na2GTP, 5 NaCl; pH 7.3 (CsOH); 285 ± 5 mos mol l^−1.
An EPC-9 patch-clamp amplifier and corresponding PULSE software from HEKA Electronik (Lambrecht/Pfalz, Germany) were used to make recordings. Currents were sampled at 50 kHz and recorded on a hard disk. Borosilicate glass from AM Systems, Everett, WA, United States were used for patch pipettes. The input resistance of the pipettes ranged from 2 to 4 MΩ. […] A built-in procedure of the HEKA amplifier compensated for the capacitive transient currents. A −P/6 protocol was utilized to subtract leak current online. I Ca was generated with the recording protocol which included a depolarization from a holding potential of −80 mV to 0 mV for 10 ms every 30 s. I Na was generated through a recording protocol which included a step depolarization from a holding potential of −80 mV to 0 mV for 10 ms at a frequency of 0.1 Hz. Cells were perfused with the test compound via a pressure driven perfusion system (AutoMate Scientific, United States).
All data analysis and graphs were generated in OriginPro (Origin Lab Corporation, United States). […] Activation and SSI curves were fit by the modified Boltzmann equation: I or G=1/(1+exp(Vm−V0.5/ka)) Where I is the current or G is the conductance, Vm is the pre-pulse potential, V 0.5 is the half-maximal activation potential and ka is the slope factor.
Statistical significance (p < 0.05) was determined using unpaired Student’s t-test or 1-way ANOVA followed by a Tukey multiple comparison. All data is presented as mean ± SEM (n), where n is individual cells.

Nav1.7 = conditions: cited from earlier work
Source text: Loss-of-function mutation of the SCN9A gene that codes for Nav1.7 leads to congenital insensitivity to pain ([Cox et al., 2006]), whereas SCN9A gain-of-function mutations causes paroxysmal extreme pain disorder and primary erythromelalgia ([Dib-Hajj et al., 2008]). […] Homology of VGIC voltage sensing domains, and particularly those of Nav channels, is at the crux of the development of genuinely selective Nav1.7 modulators ([Kingwell, 2019]). Given the VSD functional importance in neuronal VGICs and their structural homology, it is not surprising that VDPs target related channel families. […] Mammalian Nav and Cav α-subunits are structurally homologous but differ in their gating mechanisms ([Kubota et al., 2017]).

P-type calcium channels = conditions: ref Chuang et al., 1998, Olamendi-Portugal et al., 2002, Sidach and Mintz; cited from earlier work
Source text: (§1) Mammalian Nav and Cav α-subunits are structurally homologous but differ in their gating mechanisms ([Kubota et al., 2017]).

Nav1.2 and Nav1.5 = conditions: ref Chuang et al., 1998, Olamendi-Portugal et al., 2002, Sidach and Mintz; cited from earlier work
Source text: as §1

N-type Cav channel = conditions: ref Chuang et al., 1998, Olamendi-Portugal et al., 2002, Sidach and Mintz; cited from earlier work
Source text: as §1

[3] = test system: T-type and L-type Cav channels; conditions: ref Chuang et al., 1998, Olamendi-Portugal et al., 2002, Sidach and Mintz; cited from earlier work
Source text: as §1

[4] = ref Kuenzi and Dale, 1996, Caterina et al., 1997, McArthur et al., 2019
[5] = ref Swartz and MacKinnon, 1995, 1998, Li-Smerin and Swartz, 2002, Bosmans et al., 2008, Bladen et al., 2014

Cn1nccc1-c1ccccc1Oc1ccc(S(=O)(=O)Nc2nccs2)cc1C#N [PF-04856264]
effect in rodent models of acute nociception or inflammatory pain (in words) (animal pain models; small molecule, ref Deuis et al., 2017): ineffective

COc1cc(CNC(=O)CCCC/C=C/C(C)C)ccc1O [capsaicin]
channel families acted on [1, 4]: TRPV1/Kv/Cav

[D-Ala^2, N-MePhe^4, Gly-ol]-Enkephalin [DAMGO, reference compound]
antinociceptive effect in the presence of Cav1 and Cav2.2 channel inhibitors (in words) (animal pain models; ref Contreras et al., 1988, Barro et al., 1995): enhanced | inhibition of HVA I Ca ([2]; 100 nM DAMGO applied alone, small IB4− rat DRG neurons, mean ± SEM, n = 6): 6.49 ± 1.07%

ProTxII
effect in rodent models of acute nociception or inflammatory pain (in words) (animal pain models; ref Schmalhofer et al., 2008): ineffective | channel families acted on ([1]; ref Middleton et al., 2002, Bladen et al., 2014): Nav/Cav | inhibition of Nav and Cav channels (in words) [1, 5]: inhibit both Nav and Cav channels

CN1CC[C@]23c4c5ccc(O)c4O[C@H]2[C@@H](O)C=C[C@H]3[C@H]1C5 [morphine]
antinociceptive effect in the presence of Cav1 and Cav2.2 channel inhibitors (in words) (animal pain models; in vivo): enhanced

Hanatoxin
inhibition of Nav and Cav channels (in words) [1, 5]: inhibit both Nav and Cav channels | channel families acted on ([1]; ref Swartz and MacKinnon, 1995, Li-Smerin and Swartz, 1998, Bosmans et al., 2008): Kv/Nav/Cav

NC1=N[C@H](O)[C@H]2[C@H]3O[C@]4(O)O[C@@H]([C@@H](O)[C@@]2(N1)[C@@H]4O)[C@]3(O)CO [tetrodotoxin]
channel families acted on [1]: Nav/Cav

C=CCN1CC[C@]23c4c5ccc(O)c4O[C@H]2C(=O)CC[C@@]3(O)[C@H]1C5 [naloxone, reference compound]
inhibition at 1 µM ([2]; Rattus norvegicus, DRG neuron, read-out: inhibition of I Ca): 1.68 ± 0.61% | effect on Nav1.7 currents (in words) (Nav1.7): did not alter Nav1.7 currents

ProTxI: voltage-sensing domain (VSD) gating modifier toxin (ECRYWLGGCSAGQTCCKHLVCSRRHGWCVWDGTFS; ends and bridges not checked; cysteine pairing not given here; UniProt P83480 1-35, looked up)
channel families acted on ([1]; ref Middleton et al., 2002, Bosmans et al., 2008, Bladen et al., 2014, Gui et al.): Nav/Kv/Cav/TRPA1 | inhibition of Nav and Cav channels (in words) [1, 5]: inhibit both Nav and Cav channels

Oc1cc2c(cc1O)CN(C(=S)NCCc1ccc(Cl)cc1)CCC2 [capsazepine]
channel families acted on [1, 4]: TRPV1/Kv/Cav

COc1ccc2c3c1O[C@H]1C(=O)CC[C@@]4(O)[C@@H](C2)N(C)CC[C@]314 [oxycodone, reference compound]
effect on Nav1.7 currents (in words) (Nav1.7; opioid receptor modulators, ref Mueller et al., 2019): did not alter Nav1.7 currents

B1: Kurtoxin: scorpion peptide, gating modifier toxin (peptide, UniProt P58910 1-63, looked up)
Kurtoxin: KIDGYPVDYWNCKRICWYNNKYCNDLCKGLKADSGYCWGWTLSCYCQGLPDNARIKRSGRCRA
modifications: ends and bridges not checked
channel families acted on ([1]; ref Chuang et al., 1998): Nav/Cav | inhibition of Nav and Cav channels (in words) [1, 5]: inhibit both Nav and Cav channels | effect on deactivation (in words) (P-type calcium channels): slows deactivation | effect on inactivation of Nav1.2 and Nav1.5 (in words) (Nav1.2 and Nav1.5): slows inactivation | effect on N-type Cav channel kinetics (in words) (N-type Cav channel): little to no alteration | effect on deactivation (in words) [3]: accelerates deactivation

Source: publication PMC7875911 (Frontiers in Pharmacology, 2021)
